Results from ChEMBL document CHEMBL4261616, “Discovery of heterocyclic replacements for the coumarin core of anti-tubercular FadD32 inhibitors” (Bioorg Med Chem Lett, 2018).
Values after ≈ are worked out from the molar mass of the structure shown.

How the values were obtained:
[1] = Kinetic solubility of the compound at pH 7.4 by chemiluminescence nitrogen detection method; type: physicochemical; conditions: buffer, read-out: Kinetic_solubility
[2] = target: T1, Long-chain-fatty-acid--AMP ligase FadD32 (Mycobacterium tuberculosis (strain ATCC 25618 / H37Rv)) (UniProt O53580); test: Inhibition of Mycobacterium tuberculosis H37Rv FadD32 assessed as reduction in bacterial viability after 6 days by resazurin dye based fluorescence assay
T1 sequence (whole entry): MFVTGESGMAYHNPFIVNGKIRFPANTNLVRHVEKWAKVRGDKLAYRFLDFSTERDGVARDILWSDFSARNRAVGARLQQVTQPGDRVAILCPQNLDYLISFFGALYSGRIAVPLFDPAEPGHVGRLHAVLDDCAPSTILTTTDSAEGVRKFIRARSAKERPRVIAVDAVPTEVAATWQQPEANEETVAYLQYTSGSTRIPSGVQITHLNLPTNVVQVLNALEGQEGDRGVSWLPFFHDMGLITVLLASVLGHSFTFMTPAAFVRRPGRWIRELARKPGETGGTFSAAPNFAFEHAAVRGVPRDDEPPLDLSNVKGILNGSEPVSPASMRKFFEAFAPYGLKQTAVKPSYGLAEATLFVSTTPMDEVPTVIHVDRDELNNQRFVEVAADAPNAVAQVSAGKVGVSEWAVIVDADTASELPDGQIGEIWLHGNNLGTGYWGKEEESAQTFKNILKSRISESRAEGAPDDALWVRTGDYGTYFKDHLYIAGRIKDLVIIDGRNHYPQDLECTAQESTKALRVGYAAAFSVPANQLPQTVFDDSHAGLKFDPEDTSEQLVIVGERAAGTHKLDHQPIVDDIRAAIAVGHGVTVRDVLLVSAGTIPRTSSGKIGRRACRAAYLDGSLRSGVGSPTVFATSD

[3] = system: Mycobacterium tuberculosis; test: Antimycobacterial activity against Mycobacterium tuberculosis; type: functional
[4] = Metabolic stability in mouse liver microsomes at 1 uM after 60 mins by UPLC-MS/MS analysis; type: ADME, microsome; conditions: for remaining at 1 h, 1 µM: liver microsomes, read-out: Stability
[5] = Metabolic stability in human liver microsomes at 1 uM after 60 mins by UPLC-MS/MS analysis; type: ADME, microsome; conditions: for remaining at 1 h, 1 µM: liver microsomes, read-out: Stability
[6] = system: Mycobacterium tuberculosis; test: Antimycobacterial activity against Mycobacterium tuberculosis H37Rv infected in C57BL/6J mouse assessed as log reduction in bacterial load in lungs up to 50 mg/kg, po qd via gavage up to day 8 post infection starting from day 1 post infection measured on day 9; type: functional
[7] = system: Mus musculus; test: Toxicity in C57BL/6J mouse infected with Mycobacterium tuberculosis H37Rv assessed as mortality up to 50 mg/kg, po qd via gavage up to day 8 post infection starting from day 1 post infection measured daily; type: organism-based; conditions: in vivo
[8] = system: Mycobacterium tuberculosis; test: Antimycobacterial activity against Mycobacterium tuberculosis H37Rv infected in C57BL/6J mouse assessed as 2 log reduction in bacterial load in lungs administered po qd via gavage up to day 8 post infection starting from day 1 post infection measured on day 9; type: functional
[9] = system: HepG2; test: Cytotoxicity against human HepG2 cells after 48 hrs by CellTiter-Glo assay; type: cell-based; conditions: HepG2, 48 h
[10] = system: Mycobacterium tuberculosis; test: Antimycobacterial activity against Mycobacterium tuberculosis H37Rv infected in C57BL/6J mouse assessed as reduction in bacterial load in lungs administered po qd via gavage up to day 8 post infection starting from day 1 post infection measured on day 9; type: functional, organism-based
[11] = Drug level treated with 4-(4-fluorophenyl)-5,7-dimethyl-6-(4-(morpholinomethyl)phenyl)-2H-chromen-2-one under basic condition after 18 hrs at room temperature in presence of morpholine; type: physicochemical
[12] = Protein binding in mouse plasma a 5 uM after 5 hrs by UPLC-MS based rapid equilibrium dialysis method; type: ADME, cell-free
[13] = Plasma clearance in mouse at 1 mg/kg, iv; type: ADME, organism-based
[14] = Protein binding in human plasma a 5 uM after 5 hrs by UPLC-MS based rapid equilibrium dialysis method; type: ADME, cell-free

Compound	solubility kinetic [1] [µM]	MIC90 [2] [µM]	further results
Cc1cc2nccc(-c3ccccc3C(=O)O)c2c(C)c1-c1ccc(CN2CCOCC2)cc1	222 (≈ 100 µg/mL)	40 (≈ 18.1 µg/mL)	
Cc1cc2nccc(-c3ccccc3Cl)c2c(C)c1-c1ccc(CN2CCOCC2)cc1		0.3 (≈ 0.133 µg/mL)	
COc1cccc(-c2ccnc3cc(C)c(-c4ccc(CN5CCOCC5)cc4)c(C)c23)c1Cl	2 (≈ 0.946 µg/mL)	10 (≈ 4.73 µg/mL)	
CCc1ccccc1CNc1ccnc2cc(C)c(-c3ccc(CN4CCOCC4)cc3)c(C)c12	59 (≈ 27.5 µg/mL)	2.5 (≈ 1.16 µg/mL)	
Cc1cc2nc(C(=O)N3CCNCC3)cc(-c3ccccc3Cl)c2c(C)c1-c1ccncc1		10 (≈ 4.57 µg/mL)	
Cc1cc2nccc(-c3ccccc3C#N)c2c(C)c1-c1ccc(CN2CCOCC2)cc1	24 (≈ 10.4 µg/mL)	2.5 (≈ 1.08 µg/mL)	
Cc1cc2nc(C(=O)O)cc(-c3ccccc3Cl)c2c(C)c1-c1ccncc1	226 (≈ 87.9 µg/mL)	80 (≈ 31.1 µg/mL)	
Cc1cc2[nH]c(=O)cc(-c3ccccc3)c2c(C)c1-c1ccc(CN2CCOCC2)cc1		> 40	
Cc1cc2nc(C(=O)N3CCCC3)cc(-c3ccccc3Cl)c2c(C)c1-c1ccncc1	41 (≈ 18.1 µg/mL)	5 (≈ 2.21 µg/mL)	
Cc1cc2oc(=O)cc(-c3ccccc3)c2c(C)c1-c1ccncc1			MIC90 [3]: 0.24 to 5.6 µM (≈ 0.0786 to 1.83 µg/mL)
Cc1cc2oc(=O)cc(-c3cccc(N)c3)c2c(C)c1-c1ccc(CN2CCOCC2)cc1			MIC90 [3]: 0.24 to 5.6 µM (≈ 0.106 to 2.47 µg/mL)
Cc1cc2nccc(-c3ccccc3Cl)c2c(C)c1-c1ccncc1	21 (≈ 7.24 µg/mL)	5 (≈ 1.72 µg/mL)	
COc1ncccc1-c1ccnc2cc(C)c(-c3ccc(CN4CCOCC4)cc3)c(C)c12	1 (≈ 0.44 µg/mL)	2.5 (≈ 1.1 µg/mL)	
CNC(=O)c1cc(-c2ccccc2Cl)c2c(C)c(-c3ccncc3)c(C)cc2n1	15 (≈ 6.03 µg/mL)	0.8 (≈ 0.322 µg/mL)	remaining at 1 h, 1 µM [4]: 19.1%; remaining at 1 h, 1 µM [5]: 19.4%; Activity [6]: 4 deltalog10CFU; Activity [7]: Non-Toxic; ED99 [8]: 7.8 mg/kg; IC50 [9]: 60 µM; Activity [10]: Dose-dependent effect
Cc1cc(O)c(/C(=C\C(=O)N2CCOCC2)c2ccc(F)cc2)c(C)c1-c1ccc(CN2CCOCC2)cc1			Drug metabolism [11]: Metabolite_Detected
Cc1cc2nccc(-c3cncnc3)c2c(C)c1-c1ccc(CN2CCOCC2)cc1	> 230	2.5 (≈ 1.03 µg/mL)	Stability ([4]; microsomes, 1 h, 1 µM): < 5%; Stability ([5]; microsomes, 1 h, 1 µM): 11.6%; PPB [12]: 92.8%; clearance [13]: 65.1 mL/min/kg; PPB [14]: 95.2%
Cc1cc2nc(C(N)=O)cc(-c3ccccc3Cl)c2c(C)c1-c1ccncc1	8 (≈ 3.1 µg/mL)	1.25 (≈ 0.485 µg/mL)	
Cc1cc2nc(C(=O)N(C)C)cc(-c3ccccc3Cl)c2c(C)c1-c1ccncc1	157 (≈ 65.3 µg/mL)	20 (≈ 8.32 µg/mL)	

Compound	solubility kinetic [1] [µM]	MIC90 [2] [µM]	further results
Cc1cc2nccc(-c3ccc(Cl)cc3)c2c(C)c1-c1ccc(CN2CCOCC2)cc1		> 80	
Cc1cc2nc(CO)cc(-c3ccccc3Cl)c2c(C)c1-c1ccncc1	32 (≈ 12 µg/mL)	3.75 (≈ 1.41 µg/mL)	
Cc1cc2nccc(-c3ccccc3)c2c(C)c1-c1ccc(CN2CCOCC2)cc1		0.45 (≈ 0.184 µg/mL)	
Cc1cc2nccc(-c3ccnn3C)c2c(C)c1-c1ccc(CN2CCOCC2)cc1	243 (≈ 100 µg/mL)	2.5 (≈ 1.03 µg/mL)	
Cc1cc2nc(C(C)(C)O)cc(-c3ccccc3Cl)c2c(C)c1-c1ccncc1	38 (≈ 15.3 µg/mL)	> 40	
Cc1cc2nccc(-c3cccc(Cl)c3)c2c(C)c1-c1ccc(CN2CCOCC2)cc1	1 (≈ 0.443 µg/mL)	1.5 (≈ 0.664 µg/mL)	
Cc1cc2nc(C(=O)NCCF)cc(-c3ccccc3Cl)c2c(C)c1-c1ccncc1	5 (≈ 2.17 µg/mL)	1.25 (≈ 0.542 µg/mL)	
Cc1cc2nc(C(=O)NCCN(C)C)cc(-c3ccccc3Cl)c2c(C)c1-c1ccncc1	263 (≈ 121 µg/mL)	0.3 (≈ 0.138 µg/mL)	remaining at 1 h, 1 µM [4]: 24%; remaining at 1 h, 1 µM [5]: 3.2%; IC50 [9]: 16 µM
Cc1cc2nccc(-c3ccccc3C(N)=O)c2c(C)c1-c1ccc(CN2CCOCC2)cc1		20 (≈ 9.03 µg/mL)	
Cc1cc2nccc(-c3cccnc3)c2c(C)c1-c1ccc(CN2CCOCC2)cc1	209 (≈ 85.6 µg/mL)	5 (≈ 2.05 µg/mL)	
Cc1cccc(C)c1-c1ccnc2cc(C)c(-c3ccc(CN4CCOCC4)cc3)c(C)c12		5 (≈ 2.18 µg/mL)	
CCOC(=O)c1cc(-c2ccccc2Cl)c2c(C)c(-c3ccncc3)c(C)cc2n1	9 (≈ 3.75 µg/mL)	10 (≈ 4.17 µg/mL)	
Cc1cc2occ(-c3ccccc3)c2c(C)c1-c1ccc(CN2CCOCC2)cc1		2.5 (≈ 0.994 µg/mL)	
COc1ccncc1-c1ccnc2cc(C)c(-c3ccc(CN4CCOCC4)cc3)c(C)c12	169 (≈ 74.3 µg/mL)	2.5 (≈ 1.1 µg/mL)	
Cc1cc2nc(C(=O)NCCO)cc(-c3ccccc3Cl)c2c(C)c1-c1ccncc1	25 (≈ 10.8 µg/mL)	0.3 (≈ 0.13 µg/mL)	remaining at 1 h, 1 µM [4]: 26.2%; remaining at 1 h, 1 µM [5]: 8%; IC50 [9]: 100 µM
Cc1cc2nc(C(=O)N3CCOCC3)cc(-c3ccccc3Cl)c2c(C)c1-c1ccncc1	145 (≈ 66.4 µg/mL)	15 (≈ 6.87 µg/mL)	
Cc1cc2nc(C(=O)NC(C)C)cc(-c3ccccc3Cl)c2c(C)c1-c1ccncc1	4 (≈ 1.72 µg/mL)	2.5 (≈ 1.07 µg/mL)	
Cc1cc2oc(=O)cc(-c3ccccc3)c2c(C)c1-c1ccc(CN2CCOCC2)cc1			MIC90 [3]: 0.24 to 5.6 µM (≈ 0.102 to 2.38 µg/mL)
